US20260132140A1, “IMIDAZOLYL-AMINO-PYRAZINE-CARBONITRILS AS CHK-1 INHIBITORS” (BenevolentAI Bio Limited, priority 2022, published 2026)
Where two headings read alike, the source gives them in different places.

Legend:
GBM LN18 cells = assay: In vitro cell viability assay (Cell Titre Glo, 72 hours); format: cell-based; settings: Homo sapiens, LN-18, read-out: LN18 pIC50 (converted)
Method: GBM LN18 cells were incubated with increasing concentrations of selected compounds of the invention for 72 hours prior to the measurement of ATP in metabolically viable cells with the Cell Titre® Glo Luminescent reagent. A 10-point concentration response curve up to a maximum concentration of 10 μM was tested.
The percent (%) effect i.e., inhibition at each concentration of compound was calculated based on, and relative to the amount of inhibition produced in the vehicle control and inhibited control wells contained within each plate.

human Chk1 kinase = molecular target: T1, human Chk1 kinase (Homo sapiens, UniProt O14757); assay: biochemical
T1 sequence (O14757 1-476): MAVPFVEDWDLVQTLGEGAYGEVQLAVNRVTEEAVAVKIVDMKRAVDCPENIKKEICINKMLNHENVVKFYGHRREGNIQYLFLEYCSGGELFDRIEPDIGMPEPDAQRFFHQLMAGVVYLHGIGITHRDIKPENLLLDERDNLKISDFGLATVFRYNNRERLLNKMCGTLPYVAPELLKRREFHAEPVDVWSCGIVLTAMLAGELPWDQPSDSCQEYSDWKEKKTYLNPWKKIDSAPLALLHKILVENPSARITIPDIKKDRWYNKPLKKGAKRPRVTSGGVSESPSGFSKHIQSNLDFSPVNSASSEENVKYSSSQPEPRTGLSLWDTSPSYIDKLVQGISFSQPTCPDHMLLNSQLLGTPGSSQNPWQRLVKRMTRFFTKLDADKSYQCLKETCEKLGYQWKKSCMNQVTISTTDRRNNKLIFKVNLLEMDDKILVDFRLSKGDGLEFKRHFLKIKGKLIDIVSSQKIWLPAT

human Chk2 kinase = human Chk2 kinase (Homo sapiens, UniProt O96017); assay: biochemical
[1] = system: pChk1(Ser296) in SW620 cells; assay: pChk1(Ser296) sandwich ELISA, cell-based on-target kinase activity; settings: Homo sapiens, read-out: SW620 pIC50 (converted)
Method: ELISA assays were performed as per the manufacturer's protocol. […] Selected compounds of the invention were tested as a 8-point concentration response up to a maximum concentration of either 1 μM, 3 μM or 10 μM. The percent (%) effect i.e. inhibition at each concentration of compound was calculated based on, and relative to, the amount of inhibition produced in the vehicle control and inhibited control wells contained within each plate.

RSK2 = molecular target: T2, RSK2 (Homo sapiens, UniProt P51812); assay: RSK1-4 kinase assay (Eurofins KinaseProfiler, radiometric): RSK2; format: biochemical; settings: approximately ATP Km
T2 construct: purchased Eurofins (KinaseProfiler service)
Excerpt: (§1) The radiometric kinase activity assays were run at approximately the ATP Km for each kinase and the IC50 data is shown in Table 24.

RSK4 = molecular target: T3, RSK4 (Homo sapiens, UniProt Q9UK32); assay: RSK1-4 kinase assay (Eurofins KinaseProfiler, radiometric): RSK4; format: biochemical; settings: approximately ATP Km
T3 construct: purchased Eurofins (KinaseProfiler service)
Excerpt: as §1

RSK3 = molecular target: T4, RSK3 (Homo sapiens, UniProt Q15349); assay: RSK1-4 kinase assay (Eurofins KinaseProfiler, radiometric): RSK3; format: biochemical; settings: approximately ATP Km
T4 construct: purchased Eurofins (KinaseProfiler service)
Excerpt: as §1

RSK1 = molecular target: T5, RSK1 (Homo sapiens, UniProt Q15418); assay: RSK1-4 kinase assay (Eurofins KinaseProfiler, radiometric): RSK1; format: biochemical; settings: approximately ATP Km
T5 construct: purchased Eurofins (KinaseProfiler service)
Excerpt: as §1

[2] = SW-620, 2 h, neocarzinostatin 7.5 μM
[3] = SW-620, neocarzinostatin 7.5 μM, 2 hours

Chain of human Chk2 kinase (O96017 whole entry): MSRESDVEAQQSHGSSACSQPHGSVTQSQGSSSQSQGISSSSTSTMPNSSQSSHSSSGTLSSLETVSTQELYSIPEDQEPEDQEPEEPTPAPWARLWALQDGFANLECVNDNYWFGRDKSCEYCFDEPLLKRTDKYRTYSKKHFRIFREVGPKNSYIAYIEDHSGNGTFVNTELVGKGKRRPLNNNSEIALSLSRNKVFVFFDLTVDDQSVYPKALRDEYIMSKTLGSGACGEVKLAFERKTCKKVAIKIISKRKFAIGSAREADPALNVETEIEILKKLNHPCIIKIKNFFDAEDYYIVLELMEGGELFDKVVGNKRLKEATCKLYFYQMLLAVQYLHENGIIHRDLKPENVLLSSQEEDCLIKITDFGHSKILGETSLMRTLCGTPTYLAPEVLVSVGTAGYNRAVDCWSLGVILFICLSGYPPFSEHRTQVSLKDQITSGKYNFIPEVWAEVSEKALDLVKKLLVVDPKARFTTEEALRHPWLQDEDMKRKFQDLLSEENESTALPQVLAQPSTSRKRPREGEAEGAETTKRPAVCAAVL
T3 sequence (Q9UK32 whole entry): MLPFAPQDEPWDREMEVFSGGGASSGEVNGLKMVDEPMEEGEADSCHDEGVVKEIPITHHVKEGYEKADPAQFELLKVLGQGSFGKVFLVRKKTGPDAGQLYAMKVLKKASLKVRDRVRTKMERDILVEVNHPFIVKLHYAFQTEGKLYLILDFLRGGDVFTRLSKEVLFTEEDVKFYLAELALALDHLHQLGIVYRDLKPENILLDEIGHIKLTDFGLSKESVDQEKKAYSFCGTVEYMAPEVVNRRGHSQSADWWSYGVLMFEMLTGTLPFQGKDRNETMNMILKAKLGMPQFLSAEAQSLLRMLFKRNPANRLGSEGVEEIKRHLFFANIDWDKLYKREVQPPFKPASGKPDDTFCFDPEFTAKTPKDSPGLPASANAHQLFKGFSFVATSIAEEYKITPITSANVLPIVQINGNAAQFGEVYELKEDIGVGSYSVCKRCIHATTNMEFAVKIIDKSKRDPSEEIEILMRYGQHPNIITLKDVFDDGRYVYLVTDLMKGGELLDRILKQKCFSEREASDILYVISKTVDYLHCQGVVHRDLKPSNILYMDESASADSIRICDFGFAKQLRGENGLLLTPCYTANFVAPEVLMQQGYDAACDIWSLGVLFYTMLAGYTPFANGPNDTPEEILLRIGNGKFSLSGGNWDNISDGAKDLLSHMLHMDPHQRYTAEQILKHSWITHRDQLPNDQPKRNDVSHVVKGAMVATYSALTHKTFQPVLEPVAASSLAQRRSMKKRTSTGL
T2 sequence (P51812 whole entry): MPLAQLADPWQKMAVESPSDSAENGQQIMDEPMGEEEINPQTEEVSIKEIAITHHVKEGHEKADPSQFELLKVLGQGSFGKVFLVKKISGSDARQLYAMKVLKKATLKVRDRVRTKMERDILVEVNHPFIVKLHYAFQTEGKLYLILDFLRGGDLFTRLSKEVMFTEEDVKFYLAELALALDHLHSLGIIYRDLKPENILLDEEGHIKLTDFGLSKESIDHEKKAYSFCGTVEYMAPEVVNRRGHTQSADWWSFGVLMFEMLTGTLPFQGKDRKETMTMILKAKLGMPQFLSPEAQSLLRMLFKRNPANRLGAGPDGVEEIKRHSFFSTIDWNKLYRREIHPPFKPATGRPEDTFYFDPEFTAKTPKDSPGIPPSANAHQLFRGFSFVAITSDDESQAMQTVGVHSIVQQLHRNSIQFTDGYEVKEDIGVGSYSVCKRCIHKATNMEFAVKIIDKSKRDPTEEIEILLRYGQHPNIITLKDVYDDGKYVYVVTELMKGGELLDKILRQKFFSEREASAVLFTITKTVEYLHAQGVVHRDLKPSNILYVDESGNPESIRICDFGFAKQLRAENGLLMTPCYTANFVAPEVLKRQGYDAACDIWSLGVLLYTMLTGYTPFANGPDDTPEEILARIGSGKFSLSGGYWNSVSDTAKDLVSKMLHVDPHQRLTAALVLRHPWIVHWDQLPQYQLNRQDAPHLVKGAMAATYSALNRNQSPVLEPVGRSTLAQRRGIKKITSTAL
T5 sequence (Q15418 whole entry): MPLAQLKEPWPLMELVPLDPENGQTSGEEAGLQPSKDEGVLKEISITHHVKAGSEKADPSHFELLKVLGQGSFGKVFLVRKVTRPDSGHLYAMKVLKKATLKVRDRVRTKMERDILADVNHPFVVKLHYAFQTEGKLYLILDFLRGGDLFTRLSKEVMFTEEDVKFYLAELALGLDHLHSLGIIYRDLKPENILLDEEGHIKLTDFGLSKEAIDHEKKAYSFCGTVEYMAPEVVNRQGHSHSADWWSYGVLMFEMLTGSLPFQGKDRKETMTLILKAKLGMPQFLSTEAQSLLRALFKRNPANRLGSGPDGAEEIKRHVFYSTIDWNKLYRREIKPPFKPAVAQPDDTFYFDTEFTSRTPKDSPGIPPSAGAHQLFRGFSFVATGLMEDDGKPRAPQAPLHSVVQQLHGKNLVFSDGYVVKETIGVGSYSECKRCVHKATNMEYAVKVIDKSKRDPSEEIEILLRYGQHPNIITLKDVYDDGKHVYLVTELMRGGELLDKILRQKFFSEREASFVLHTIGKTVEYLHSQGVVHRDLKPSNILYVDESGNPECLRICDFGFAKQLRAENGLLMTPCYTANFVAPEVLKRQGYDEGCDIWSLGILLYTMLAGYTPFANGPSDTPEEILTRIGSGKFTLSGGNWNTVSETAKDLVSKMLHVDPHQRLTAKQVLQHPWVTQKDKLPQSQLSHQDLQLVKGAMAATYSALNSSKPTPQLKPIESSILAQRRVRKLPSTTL
T4 sequence (Q15349 whole entry): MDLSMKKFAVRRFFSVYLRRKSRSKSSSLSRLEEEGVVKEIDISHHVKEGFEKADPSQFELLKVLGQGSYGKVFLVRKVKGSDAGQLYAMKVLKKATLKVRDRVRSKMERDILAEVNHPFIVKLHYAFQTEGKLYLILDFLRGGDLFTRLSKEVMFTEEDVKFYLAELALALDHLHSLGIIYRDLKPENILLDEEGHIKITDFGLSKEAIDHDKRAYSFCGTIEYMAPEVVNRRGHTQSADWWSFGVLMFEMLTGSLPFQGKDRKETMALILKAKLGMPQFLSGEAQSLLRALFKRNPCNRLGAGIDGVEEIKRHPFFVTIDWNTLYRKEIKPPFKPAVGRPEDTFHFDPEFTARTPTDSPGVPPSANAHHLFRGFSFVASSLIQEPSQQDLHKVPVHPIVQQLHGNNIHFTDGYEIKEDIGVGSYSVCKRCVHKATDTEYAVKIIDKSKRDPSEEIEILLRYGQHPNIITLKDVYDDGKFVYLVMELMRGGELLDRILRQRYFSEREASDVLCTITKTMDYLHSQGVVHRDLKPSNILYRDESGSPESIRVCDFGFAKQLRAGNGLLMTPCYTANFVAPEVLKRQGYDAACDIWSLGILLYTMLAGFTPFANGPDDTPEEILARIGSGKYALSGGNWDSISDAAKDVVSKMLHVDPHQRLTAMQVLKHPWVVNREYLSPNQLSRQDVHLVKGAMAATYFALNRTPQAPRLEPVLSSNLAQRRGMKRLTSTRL

Row | SMILES | IC50 (GBM LN18 cells) | IC50 (human Chk1 kinase) | IC50 (human Chk2 kinase) | IC50 [1, 2] | IC50 (RSK2) | IC50 (RSK4) | IC50 (RSK3) | IC50 (RSK1) | IC50 [1, 3]
1 | C[C@@]1(N)CCN(c2ccc(-n3cnc(Nc4cnc(C#N)cn4)c3)cc2)C1 [Example 156, (R)-5-((1-(4-(3-Amino-3-methylpyrrolidin-1-yl)phenyl)-1H-imidazol-4-yl)amino)pyrazine-2-carbonitrile] | < 1000 nM | 10 to 31.6 nM | 10000 to 100000 nM | 1000 to 10000 nM | – | – | – | – | –
2 | CCNCc1ccc(-c2cc(Nc3cnc(C#N)cn3)n[nH]2)c(OC)c1 [Comparator Ex. 3, 5-((5-(4-((Ethylamino)methyl)-2-methoxyphenyl)-1H-pyrazol-3-yl)amino)pyrazine-2-carbonitrile, reference compound] | – | – | – | – | 172 nM | 163 nM | 60 nM | 570 nM | –
3 | C[C@H]1CN(c2ccc(-n3cnc(Nc4cnc(C#N)cn4)c3)cc2)C[C@@H]1N(C)C [Example 73, 5-((1-(4-((3R,4S)-3-(Dimethylamino)-4-methylpyrrolidin-1-yl)phenyl)-1H-imidazol-4-yl)amino)pyrazine-2-carbonitrile] | < 1000 nM | < 10 nM | 1000 to 10000 nM | – | – | – | – | – | < 1000 nM
4 | CN(C)[C@@H]1CCN(c2ccc(-n3cnc(Nc4cnc(C#N)cn4)c3)c(F)c2)C1 [Example 65, (R)-5-((1-(4-(3-(Dimethylamino)pyrrolidin-1-yl)-2-fluorophenyl)-1H-imidazol-4-yl)amino)pyrazine-2-carbonitrile] | < 1000 nM | – | – | – | – | – | – | – | 1000 to 10000 nM
5 | N#Cc1cnc(Nc2cn(-c3ccc(N4C[C@H](N)C5(CC5)C4)cc3)cn2)cn1 [Example 154, (R)-5-((1-(4-(7-Amino-5-azaspiro[2.4]heptan-5-yl)phenyl)-1H-imidazol-4-yl)amino)pyrazine-2-carbonitrile] | < 1000 nM | < 10 nM | 1000 to 10000 nM | 1000 to 10000 nM | – | – | – | – | –
6 | COc1cc(N2CC[C@@H](N(C)C)C2)ccc1-n1cnc(Nc2cnc(C#N)cn2)c1 [Example 47, (R)-5-((1-(4-(3-(Dimethylamino)pyrrolidin-1-yl)-2-methoxyphenyl)-1H-imidazol-4-yl)amino)pyrazine-2-carbonitrile] | < 1000 nM | – | – | – | – | – | – | – | < 1000 nM
7 | CN1C[C@@H]2CN(c3ccc(-n4cnc(Nc5cnc(C#N)cn5)c4)cc3)C[C@@H]21 [Example 1, 5-((1-(4-((1R,5R)-6-Methyl-3,6-diazabicyclo[3.2.0]heptan-3-yl)phenyl)-1H-imidazol-4-yl)amino)pyrazine-2-carbonitrile] | < 1000 nM | < 10 nM | 1000 to 10000 nM | 1000 to 10000 nM | – | – | – | – | –
8 | CN1CCC(F)(c2ccc(-n3cnc(Nc4cnc(C#N)cn4)c3)cc2)CC1 [Example 4, 5-((1-(4-(4-Fluoro-1-methylpiperidin-4-yl)phenyl)-1H-imidazol-4-yl)amino)pyrazine-2-carbonitrile] | – | – | – | – | 2460 nM | 4960 nM | 2210 nM | > 10000 nM | –
9 | C[C@@H]1C[C@@H](N(C)C)CN1c1ccc(-n2cnc(Nc3cnc(C#N)cn3)c2)cc1 [Example 74, 5-((1-(4-((2R,4R)-4-(Dimethylamino)-2-methylpyrrolidin-1-yl)phenyl)-1H-imidazol-4-yl)amino)pyrazine-2-carbonitrile] | < 1000 nM | – | – | – | – | – | – | – | < 1000 nM
10 | CN(C)c1cc(N2CC[C@@H](N(C)C)C2)ccc1-n1cnc(Nc2cnc(C#N)cn2)c1 [Example 83, (R)-5-((1-(2-(Dimethylamino)-4-(3-(dimethylamino)pyrrolidin-1-yl)phenyl)-1H-imidazol-4-yl)amino)pyrazine-2-carbonitrile] | 1000 to 10000 nM | 316 to 1000 nM | 10000 to 100000 nM | – | – | – | – | – | –
11 | C[N+](C)([O-])[C@@H]1CCN(c2ccc(-n3cnc(Nc4cnc(C#N)cn4)c3)cc2)C1 [Example 141, (R)-1-(4-(4-((5-Cyanopyrazin-2-yl)amino)-1H-imidazol-1-yl)phenyl)-N,N-dimethylpyrrolidin-3-amine oxide] | 1000 to 10000 nM | 100 to 316 nM | 10000 to 100000 nM | – | – | – | – | – | –
12 | CN(C)[C@@H]1CCN(c2ccc(-n3cnc(Nc4cnc(C#N)cn4)c3)cc2F)C1 [Example 79, (R)-5-((1-(4-(3-(Dimethylamino)pyrrolidin-1-yl)-3-fluorophenyl)-1H-imidazol-4-yl)amino)pyrazine-2-carbonitrile] | < 1000 nM | < 10 nM | 1000 to 10000 nM | – | – | – | – | – | –
13 | N#Cc1cnc(Nc2cn(-c3ccc(N4CC[C@@H](N)C4)cc3)cn2)cn1 [Example 153, (R)-5-((1-(4-(3-Aminopyrrolidin-1-yl)phenyl)-1H-imidazol-4-yl)amino)pyrazine-2-carbonitrile] | 1000 to 10000 nM | 10 to 31.6 nM | 1000 to 10000 nM | 1000 to 10000 nM | – | – | – | – | –
14 | Cc1nc(-n2cnc(Nc3cnc(C#N)cn3)c2)ccc1N1CC[C@@H](N(C)C)C1 [Example 59, (R)-5-((1-(5-(3-(Dimethylamino)pyrrolidin-1-yl)-6-methylpyridin-2-yl)-1H-imidazol-4-yl)amino)pyrazine-2-carbonitrile] | < 1000 nM | < 10 nM | 1000 to 10000 nM | 1000 to 10000 nM | – | – | – | – | –
15 | N#Cc1cnc(Nc2cn(-c3ccc(N4C[C@H](N)[C@@H](F)C4)cc3)cn2)cn1 [Example 152, 5-((1-(4-((3S,4S)-3-Amino-4-fluoropyrrolidin-1-yl)phenyl)-1H-imidazol-4-yl)amino)pyrazine-2-carbonitrile] | 1000 to 10000 nM | 10 to 31.6 nM | 10000 to 100000 nM | – | – | – | – | – | –
16 | CCN(C)[C@@H]1CCN(c2ccc(-n3cnc(Nc4cnc(C#N)cn4)c3)cc2)C1 [Example 89, (R)-5-((1-(4-(3-(Ethyl(methyl)amino)pyrrolidin-1-yl)phenyl)-1H-imidazol-4-yl)amino)pyrazine-2-carbonitrile] | < 1000 nM | < 10 nM | 1000 to 10000 nM | – | – | – | – | – | –
17 | N#Cc1cnc(Nc2cn(-c3ccc(N4CCC(N5CCC5)C4)cc3)cn2)cn1 (single isomer, unassigned) [Example 113, 5-((1-(4-(3-(Azetidin-1-yl)pyrrolidin-1-yl)phenyl)-1H-imidazol-4-yl)amino)pyrazine-2-carbonitrile] | < 1000 nM | 10 to 31.6 nM | 10000 to 100000 nM | 1000 to 10000 nM | – | – | – | – | –
18 | CN[C@H]1CN(c2ccc(-n3cnc(Nc4cnc(C#N)cn4)c3)cc2)C[C@H]1F [Example 92, 5-((1-(4-((3R,4S)-3-Fluoro-4-(methylamino)pyrrolidin-1-yl)phenyl)-1H-imidazol-4-yl)amino)pyrazine-2-carbonitrile] | < 1000 nM | < 10 nM | 1000 to 10000 nM | < 1000 nM | – | – | – | – | –
19 | CN(C)[C@]1(C)CCN(c2ccc(-n3cnc(Nc4cnc(C#N)cn4)c3)cc2)C1 [Example 78, (R)-5-((1-(4-(3-(Dimethylamino)-3-methylpyrrolidin-1-yl)phenyl)-1H-imidazol-4-yl)amino)pyrazine-2-carbonitrile] | < 1000 nM | < 10 nM | 1000 to 10000 nM | – | – | – | – | – | < 1000 nM
20 | C[C@@H]1C[C@@H](N(C)C)CN1c1ccc(-n2cnc(Nc3cnc(C#N)cn3)c2)nc1 [Example 85, 5-((1-(5-((2R,4R)-4-(Dimethylamino)-2-methylpyrrolidin-1-yl)pyridin-2-yl)-1H-imidazol-4-yl)amino)pyrazine-2-carbonitrile] | < 1000 nM | < 10 nM | 1000 to 10000 nM | < 1000 nM | – | – | – | – | –
21 | COc1cc(N2CCN(C)CC2)ccc1-c1cc(Nc2cnc(C#N)cn2)n[nH]1 [Comparator Ex. 2, 5-((5-(2-Methoxy-4-(4-methylpiperazin-1-yl)phenyl)-1H-pyrazol-3-yl)amino)pyrazine-2-carbonitrile, reference compound] | – | – | – | – | 80 nM | 77 nM | 24 nM | 259 nM | –
22 | [2H]C([2H])([2H])N([C@@H]1CCN(c2ccc(-n3cnc(Nc4cnc(C#N)cn4)c3)cc2)C1)C([2H])([2H])[2H] [Example 84, (R)-5-((1-(4-(3-(Bis(methyl-d3)amino)pyrrolidin-1-yl)phenyl)-1H-imidazol-4-yl)amino)pyrazine-2-carbonitrile] | < 1000 nM | < 10 nM | – | – | – | – | – | – | 1000 to 10000 nM
